Like-named read-outs stand apart in the source and are kept apart here.
Experiments:
[1] = Multi-component pharmacokinetics of AAs in rats after oral administration of AF and HAF extracts (HPLC-MS/MS of plasma); parameters: species or system Sprague–Dawley (SD) rats; settings: Sprague-Dawley, rat, in vivo
Method: An aliquot (100 μl) of rat plasma was spiked with 10.0 μL IS, and vortexed with 300 μL acetic ether for 10 s before the supernatant was transferred into centrifuge tube. The extraction was repeated with 200 μL acetic ether. The combined organic layer was evaporated to dryness under a gentle stream of nitrogen at RT. The residue was resolved in 100 μL methanol and centrifuged at 15,800 × g for 10 min. The supernatant was used for HPLC-MS/MS analysis.
Chromatographic separation was performed by an Acquity C18 column (4.6 × 100 mm,3.5 μm) (Agilent Technologies, USA). The mobile phase was composed of water (containing 10 mM ammonium formate and formic acid, pH 3.0) (solvent A) and ACN (solvent B). The gradient profile of B was: 0–10 min, 35–38%; 10–11 min, 38– 60%; 11–17 min, 60–35%B; 17–18 min, 35%. The flow rate was kept at 0.5 mL/min. The column oven was set at 30 °C and the injection volume was 10 μL.
The mass spectrometer was operated in the positive ion electrospray mode with multiple reaction monitoring (MRM). The optimal MS parameters were set at the following parameters: a desolvation gas temperature of 450 °C, desolvation gas flow of 10 L/min, a nebulizer gas of 40 psi and a capillary voltage of 4000 V. The mass spectrometry conditions of AA I, AA II, AA C, AA D, 7-OH AA I and IS are summarized in Additional file 1: Table S1.
The rats were randomly divided into 6 groups (low, middle and high doses of AF and HAF; n = 6). After a week of acclimation, the animals were fasted for 12 h with free access to water. Then, AF and HAF extracts were administered to the rats. The extracts were suspended in 0.5% CMC–Na solution, and the oral doses (according to AA I in the extracts) were 3.0 mg/kg, 8.0 mg/kg and 15.0 mg/kg, respectively.
Blood samples were collected from the ocular vein using dried heparinized tubes at 0, 0.083, 0.17, 0.33, 0.50, 0.67, 0.83, 1, 2, 4, 6, 8, 10, 12 and 24 h from the start. The animals received fluid replacement (sterile isotonic saline) after every two samplings since the fifth collecting. The samples were then immediately centrifuged at 3100 × g for 10 min. The plasma obtained was frozen and stored at –20 °C until analysis.
All statistical analyses were performed using the SPSS 11.0 software (Chicago, USA). P values <0.05 were considered statistically significant. Pharmacokinetic analysis was performed using the proprietary DAS 3.0 software (Mathematical Pharmacology Professional Committee of China, Shanghai, China).
After the oral administration of AF and HAF extracts, rat plasma samples were prepared and analyzed as described above. Five main AAs can be detected in rat blood with the proposed HPLC-MS/MS method. The mean pharmacokinetic parameters of five AAs in AF and HAF are summarized in Tables 4, 5 and Additional files 5, 6, 7: Tables S4-S6. The maximum concentration (C max) was the experimentally-observed value. The other pharmacokinetic parameters of the five analytes were fitted by DAS 3.0 software.

[2] = Stability of AAs in rat plasma (QC samples, HPLC-MS/MS); assay type: in vitro ADME; settings: n = 5; for Short-term stability (RSD/%): fresh rat plasma at room temperature for 24 h before sample preparation; for Post-preparation stability (RSD/%): prepared rat plasma samples at room temperature for 24 h; for Long-term stability (RSD/%): rat plasma stored at –20 °C for 14 days; for Freeze-thaw stability (RSD/%): rat plasma, three freeze-thaw cycles (–20 °C 24 h, thawed at room temperature)
Method: The QC samples were assayed under several different conditions to evaluate the stability of AAs in rat plasma. The freeze-thaw stability of the analyte was determined over three freeze-thaw cycles. In each freeze-thaw cycle, the samples were frozen and stored at –20 °C for 24 h, then thawed at room temperature. To evaluate the long-term stability of AAs, the plasma samples were stored at –20 °C for 14 days. For the short-term stability, fresh plasma samples were kept at room temperature for 24 h before the sample preparation. After keeping the samples at room temperature for 24 h, post-preparation stability was tested. Stability was evaluated by comparing the mean concentration of the stored samples with the mean concentration of those prepared freshly. The stability data were acceptable when the bias was within ±15% of the actual value.

[3] = 3 mg/kg, AF extract, low dose (3.0 mg/kg as AA I), analyte dose mg/kg: AA I 3.0, AA II 0.21, AA C 1.42, AA D 1.60, 7-OH AA I 2.33, n = 6
[4] = 3 mg/kg, HAF extract, low dose (3.0 mg/kg as AA I), analyte dose mg/kg: AA I 3.0, AA II 0.26, AA C 1.53, AA D 1.51, 7-OH AA I 2.48, n = 6
[5] = 8 mg/kg, AF extract, mid dose (8.0 mg/kg as AA I), analyte dose mg/kg: AA I 8.0, AA II 0.56, AA C 3.78, AA D 4.26, 7-OH AA I 6.22, n = 6
[6] = 8 mg/kg, HAF extract, mid dose (8.0 mg/kg as AA I), analyte dose mg/kg: AA I 8.0, AA II 0.69, AA C 4.09, AA D 4.03, 7-OH AA I 6.62, n = 6
[7] = 15 mg/kg, AF extract, high dose (15.0 mg/kg as AA I), analyte dose mg/kg: AA I 15.0, AA II 1.05, AA C 7.09, AA D 8.00, 7-OH AA I 11.66, n = 6
[8] = 15 mg/kg, HAF extract, high dose (15.0 mg/kg as AA I), analyte dose mg/kg: AA I 15.0, AA II 1.29, AA C 7.66, AA D 7.56, 7-OH AA I 12.41, n = 6
[9] = high QC conc ng/mL: AA I 1830, AA II 3200, AA C 2980, AA D 3680, 7-OH AA I 3280
[10] = low QC conc ng/mL: AA I 1.83, AA II 8.00, AA C 186.3, AA D 36.8, 7-OH AA I 82.0
[11] = middle QC conc ng/mL: AA I 457.5, AA II 400, AA C 372.5, AA D 460, 7-OH AA I 410

For `COc1cccc2c1cc([N+](=O)[O-])c1c(C(=O)O)cc3c(c12)OCO3` [AA I], the AUC(0-inf) [1, 3] was 6080 ± 1260 ng·h/mL, the Cmax [1, 3] was 1700 ± 571 ng/mL and the Tmax [1, 3] was 0.5 ± 0.09 h. For the same compound, the CL/F ([1]; 3 mg/kg, AF extract, low dose (3.0 mg/kg as AA I), analyte dose mg/kg: AA I 3.0, AA II 0.21, AA C 1.42, AA D 1.60, 7-OH AA I 2.33, n = 6, read-out: CLz/F (converted)) was 9.5 mL/min/kg, the Vd/F ([1]; 3 mg/kg, AF extract, low dose (3.0 mg/kg as AA I), analyte dose mg/kg: AA I 3.0, AA II 0.21, AA C 1.42, AA D 1.60, 7-OH AA I 2.33, n = 6, read-out: Vz/F) was 2.85 ± 0.15 L/kg and the half-life ([1]; 3 mg/kg, AF extract, low dose (3.0 mg/kg as AA I), analyte dose mg/kg: AA I 3.0, AA II 0.21, AA C 1.42, AA D 1.60, 7-OH AA I 2.33, n = 6, read-out: t 1/2z (converted)) was 3.5 ± 0.5 h. The AUC(0-inf) [1, 4] was 5230 ± 896 ng·h/mL, the Cmax [1, 4] was 1070 ± 223 ng/mL and the Tmax [1, 4] was 0.39 ± 0.08 h. It also gave a CL/F ([1]; 3 mg/kg, HAF extract, low dose (3.0 mg/kg as AA I), analyte dose mg/kg: AA I 3.0, AA II 0.26, AA C 1.53, AA D 1.51, 7-OH AA I 2.48, n = 6, read-out: CLz/F (converted)) of 9.83 mL/min/kg, a Vd/F ([1]; 3 mg/kg, HAF extract, low dose (3.0 mg/kg as AA I), analyte dose mg/kg: AA I 3.0, AA II 0.26, AA C 1.53, AA D 1.51, 7-OH AA I 2.48, n = 6, read-out: Vz/F) of 2.75 ± 0.24 L/kg and a half-life ([1]; 3 mg/kg, HAF extract, low dose (3.0 mg/kg as AA I), analyte dose mg/kg: AA I 3.0, AA II 0.26, AA C 1.53, AA D 1.51, 7-OH AA I 2.48, n = 6, read-out: t 1/2z (converted)) of 3.22 ± 0.46 h. The AUC(0-inf) [1, 5] was 12800 ± 1860 ng·h/mL, the Cmax [1, 5] was 3820 ± 450 ng/mL and the Tmax [1, 5] was 0.56 ± 0.09 h. The CL/F ([1]; 8 mg/kg, AF extract, mid dose (8.0 mg/kg as AA I), analyte dose mg/kg: AA I 8.0, AA II 0.56, AA C 3.78, AA D 4.26, 7-OH AA I 6.22, n = 6, read-out: CLz/F (converted)) was 10.8 mL/min/kg, the Vd/F ([1]; 8 mg/kg, AF extract, mid dose (8.0 mg/kg as AA I), analyte dose mg/kg: AA I 8.0, AA II 0.56, AA C 3.78, AA D 4.26, 7-OH AA I 6.22, n = 6, read-out: Vz/F) was 5.4 ± 0.48 L/kg and the half-life ([1]; 8 mg/kg, AF extract, mid dose (8.0 mg/kg as AA I), analyte dose mg/kg: AA I 8.0, AA II 0.56, AA C 3.78, AA D 4.26, 7-OH AA I 6.22, n = 6, read-out: t 1/2z (converted)) was 5.58 ± 0.65 h. For the same compound, the AUC(0-inf) [1, 6] was 8990 ± 1780 ng·h/mL, the Cmax [1, 6] was 2000 ± 313 ng/mL and the Tmax [1, 6] was 0.42 ± 0.08 h. The CL/F ([1]; 8 mg/kg, HAF extract, mid dose (8.0 mg/kg as AA I), analyte dose mg/kg: AA I 8.0, AA II 0.69, AA C 4.09, AA D 4.03, 7-OH AA I 6.62, n = 6, read-out: CLz/F (converted)) was 11.3 mL/min/kg, the Vd/F ([1]; 8 mg/kg, HAF extract, mid dose (8.0 mg/kg as AA I), analyte dose mg/kg: AA I 8.0, AA II 0.69, AA C 4.09, AA D 4.03, 7-OH AA I 6.62, n = 6, read-out: Vz/F) was 4.58 ± 0.37 L/kg and the half-life ([1]; 8 mg/kg, HAF extract, mid dose (8.0 mg/kg as AA I), analyte dose mg/kg: AA I 8.0, AA II 0.69, AA C 4.09, AA D 4.03, 7-OH AA I 6.62, n = 6, read-out: t 1/2z (converted)) was 4.72 ± 0.52 h. For the same compound, the AUC(0-inf) [1, 7] was 26800 ± 3260 ng·h/mL, the Cmax [1, 7] was 5890 ± 426 ng/mL and the Tmax [1, 7] was 0.69 ± 0.1 h. The CL/F ([1]; 15 mg/kg, AF extract, high dose (15.0 mg/kg as AA I), analyte dose mg/kg: AA I 15.0, AA II 1.05, AA C 7.09, AA D 8.00, 7-OH AA I 11.66, n = 6, read-out: CLz/F (converted)) was 14.5 mL/min/kg, the Vd/F ([1]; 15 mg/kg, AF extract, high dose (15.0 mg/kg as AA I), analyte dose mg/kg: AA I 15.0, AA II 1.05, AA C 7.09, AA D 8.00, 7-OH AA I 11.66, n = 6, read-out: Vz/F) was 7.13 ± 0.57 L/kg and the half-life ([1]; 15 mg/kg, AF extract, high dose (15.0 mg/kg as AA I), analyte dose mg/kg: AA I 15.0, AA II 1.05, AA C 7.09, AA D 8.00, 7-OH AA I 11.66, n = 6, read-out: t 1/2z (converted)) was 5.46 ± 0.53 h. For the same compound, the AUC(0-inf) [1, 8] was 11800 ± 1770 ng·h/mL, the Cmax [1, 8] was 3470 ± 352 ng/mL and the Tmax [1, 8] was 0.47 ± 0.08 h. The CL/F ([1]; 15 mg/kg, HAF extract, high dose (15.0 mg/kg as AA I), analyte dose mg/kg: AA I 15.0, AA II 1.29, AA C 7.66, AA D 7.56, 7-OH AA I 12.41, n = 6, read-out: CLz/F (converted)) was 12 mL/min/kg, the Vd/F ([1]; 15 mg/kg, HAF extract, high dose (15.0 mg/kg as AA I), analyte dose mg/kg: AA I 15.0, AA II 1.29, AA C 7.66, AA D 7.56, 7-OH AA I 12.41, n = 6, read-out: Vz/F) was 5.53 ± 0.52 L/kg and the half-life ([1]; 15 mg/kg, HAF extract, high dose (15.0 mg/kg as AA I), analyte dose mg/kg: AA I 15.0, AA II 1.29, AA C 7.66, AA D 7.56, 7-OH AA I 12.41, n = 6, read-out: t 1/2z (converted)) was 5.32 ± 0.54 h. The “Short-term stability (RSD/%)” value [2, 9] was 6.5%, the “Short-term stability (RSD/%)” value [2, 10] was 0.58% and the “Short-term stability (RSD/%)” value [2, 11] was 8.7%. For the same compound, the “Post-preparation stability (RSD/%)” value [2, 9] was 4.5%, the “Post-preparation stability (RSD/%)” value [2, 10] was 0.65% and the “Post-preparation stability (RSD/%)” value [2, 11] was 2.0%. For the same compound, the “Long-term stability (RSD/%)” value [2, 9] was 7.6%, the “Long-term stability (RSD/%)” value [2, 10] was 0.28% and the “Long-term stability (RSD/%)” value [2, 11] was 6.9%. The “Freeze-thaw stability (RSD/%)” value [2, 9] was 12.9%, the “Freeze-thaw stability (RSD/%)” value [2, 10] was 1.1% and the “Freeze-thaw stability (RSD/%)” value [2, 11] was 10.3%.

From PMC5303205, “Comparative studies on the multi-component pharmacokinetics of Aristolochiae Fructus and honey-fried Aristolochiae Fructus extracts after oral administration in rats” (BMC Complementary and Alternative Medicine, 2017)
